Experimental findings from patent publication US11279733B2, “Peptide antibiotics” (priority 2017, dated 2022) are described below.

For one data set, the system named is A. baumannii ATCC 19606. Particulars: ATCC 19606. Put shortly:
(§1)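 Mid-log cultures grown in Mueller Hinton broth at 37° C were tested by 2-fold broth microdilution at 5×10^5 CFU/mL final. Compounds were dissolved in water and tested over a final range of 32 to 0.015 μg/mL.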

Another data set has as its system A. baumannii GN_093 PmxR. As to conditions: GN 093 PmxR. Summed up:
as §1

A further data set concerns E. coli ATCC 25922. As to conditions: ATCC 25922. Summed up:
as §1

Another data set deals with K. pneumoniae ATCC 13883. Particulars: ATCC 13883. Summed up:
as §1

Data set [1] relates to K. pneumoniae ATCC 700603, MDR. As to conditions: ATCC 700603. Summed up:
as §1

Data set [2] deals with K. pneumoniae ATCC BAA-2146, NDM-1 pos. Particulars: ATCC BAA-2146. Summed up: as §1
Data set [3] concerns K. pneumoniae GN_102 PmxR. As to conditions: GN 102 PmxR. Summed up: as §1
In data set [4] the test system is K. pneumoniae GN_106, PmxR. As to conditions: GN 106, PmxR. Put shortly:
as §1

The test system of a further data set is P. aeruginosa ATCC 27853. Particulars: ATCC 27853. Put shortly:
as §1

Data set [5] concerns P. aeruginosa GN_043, PmxR. As to conditions: P. aeruginosa GN_043, PmxR. Put shortly: as §1
Data set [6] has as its system P. aeruginosa GN_105, PmxR. As to conditions: GN 105, PmxR. Put shortly:
as §1

Another data set is described as follows: in vitro. Particulars: human. Here is the method:
Cytotoxicity of the synthesised peptides was evaluated by comparison with commercially available colistin (polymyxin E), polymyxin B (Sigma chemical Co., St. Louis, Mo., U.S.A.) and synthetic octapeptin C4 by conducting lactate dehydrogenase (LDH) assay. CC50 values calculated based on curve fitting of dose dependent inhibition of cell growth represented the cytotoxicity of the peptide. Human kidney 2 (HK2) cells were seeded as 2000 cells per well in a 384 well cell culture plate in a final volume of 20 μL in DMEM/F12 medium (Invitrogen #11330057), in which 10% of FBS was added. Cells were incubated for 24 hours at 37° C., 5% CO2 to allow cells to attach to the plates. Similar conditions were employed for HEK293 and HepG2 cytotoxicity assays.
Cytotoxicity to HEK293 and HepG2 cells was determined using the resazurin assay (McMillian, M. K.; Li, L.; Parker, J. B.; Patel, L.; Zhong, Z.; Gunnett, J. W.; Powers, W. J.; Johnson, M. D. An improved resazurin-based cytotoxicity assay for hepatic cells; Cell Biol. Toxicol. 2002, 18, 157-173; O'Brien, J.; Wilson, I.; Orton, T.; Pognan, F. Investigation of the Alamar Blue (resazurin) fluorescent dye for the assessment of mammalian cell cytotoxicity. Eur. J. Biochem. 2000, 267, 5421-5426). In brief, HEK293 and HepG2 cells were seeded at 4000 cells/well in black-wall, clear-bottom 384-well plates (Corning, Australia) and incubated for 24 h at 37° C., 5% CO2. Compounds were then added into each well. After 24 h incubation, 5 μM resazurin was added per well and incubated at 37° C. for 2 h. Fluorescence intensity was then read using a Polarstar Omega with excitation/emission 560/590. The data was then analyzed using GraphPad Prism 6 software. CC50 values were determined using GraphPad Prism 6 software (Inc. La Jolla, Calif.).

In brackets after ≈: the same amount, converted by molar mass. Positions of bridges follow the written chain, without caps; N, C: chain ends. Non-standard residues stand in square brackets, D forms with d. Residues, ends and D or L forms follow the SMILES beside them. *: point of attachment. Decanoyl(3R-OH) = CCCCCCC[C@@H](O)CC(=O)*; Nle = CCCC[C@H](N)C(=O)O; dDap = NC[C@@H](N)C(=O)O; Dab = NCC[C@H](N)C(=O)O; Nva = CCC[C@H](N)C(=O)O; Abu = CC[C@H](N)C(=O)O

In the case of `CCCCCCC[C@@H](O)CC(=O)N[C@H](CN)C(=O)N[C@H]1CCNC(=O)[C@H](CC(C)C)NC(=O)[C@H](CCN)NC(=O)[C@H](CCN)NC(=O)[C@H](CC)NC(=O)[C@@H](Cc2ccccc2)NC(=O)[C@H](CCN)NC1=O` [compound 9292, 3(R)OH-nC9CO-D-Dap-cyc[L-Dab-L-Dab-D-Phe-L-Abu-L-Dab-L-Dab-L-Leu]] ({Decanoyl(3R-OH)}-[dDap][Dab][Dab][dF][Abu][Dab][Dab]L; lactam 2-C), the “MIC A. baumannii ATCC 19606” value in the data set with A. baumannii ATCC 19606 was determined as 8 µg/mL (≈ 7.98 µM). In addition, the “MIC A. baumannii GN_093 PmxR” value against A. baumannii GN_093 PmxR stood at 8 µg/mL (≈ 7.98 µM). In the data set on E. coli ATCC 25922, the “MIC E. coli ATCC 25922” value came to 4 µg/mL (≈ 3.99 µM). Also, the “MIC K. pneumoniae ATCC 13883” value against K. pneumoniae ATCC 13883 worked out at 4 µg/mL (≈ 3.99 µM). Besides, in data set [1], the “MIC K. pneumoniae ATCC 700603, MDR” value is 4 µg/mL (≈ 3.99 µM). The “MIC K. pneumoniae ATCC BAA-2146, NDM-1 pos” value in [2] is 4 µg/mL (≈ 3.99 µM). In data set [3], the “MIC K. pneumoniae GN_102 PmxR” value was 2 µg/mL (≈ 2 µM). The “MIC K. pneumoniae GN_106, PmxR” value in data set [4] was determined as 4 µg/mL (≈ 3.99 µM). Besides, in the data set with P. aeruginosa ATCC 27853, the “MIC P. aeruginosa ATCC 27853” value was found to be 2 µg/mL (≈ 2 µM). The “MIC P. aeruginosa GN_043, PmxR” value in [5] was 2 µg/mL (≈ 2 µM). Also, the “MIC P. aeruginosa GN_105, PmxR” value in data set [6] came to 8 µg/mL (≈ 7.98 µM). Besides, the CC50 at 24 h in “in vitro” was > 300 µM.

Take `CCCCCCC[C@@H](O)CC(=O)N[C@H](CN)C(=O)N[C@H]1CCNC(=O)[C@H](CC(C)C)NC(=O)[C@H](CCN)NC(=O)[C@H](CCN)NC(=O)[C@H](CCC)NC(=O)[C@@H](Cc2ccccc2)NC(=O)[C@H](CCN)NC1=O` [compound 9293, 3(R)OH-nC9CO-D-Dap-cyc[L-Dab-L-Dab-D-Phe-L-NorVal-L-Dab-L-Dab-L-Leu]] ({Decanoyl(3R-OH)}-[dDap][Dab][Dab][dF][Nva][Dab][Dab]L; lactam 2-C): the “MIC A. baumannii ATCC 19606” value with A. baumannii ATCC 19606 came out at 8 µg/mL (≈ 7.87 µM). Further, the “MIC A. baumannii GN_093 PmxR” value against A. baumannii GN_093 PmxR turned out to be 4 µg/mL (≈ 3.94 µM). The “MIC E. coli ATCC 25922” value against E. coli ATCC 25922 was 4 µg/mL (≈ 3.94 µM). Moreover, the “MIC K. pneumoniae ATCC 13883” value in the data set on K. pneumoniae ATCC 13883 amounted to 4 µg/mL (≈ 3.94 µM). In addition, the “MIC K. pneumoniae ATCC 700603, MDR” value in [1] stood at 4 µg/mL (≈ 3.94 µM). Besides, the “MIC K. pneumoniae ATCC BAA-2146, NDM-1 pos” value in data set [2] stood at 4 µg/mL (≈ 3.94 µM). Besides, the “MIC K. pneumoniae GN_102 PmxR” value in [3] is 2 µg/mL (≈ 1.97 µM). Also, the “MIC K. pneumoniae GN_106, PmxR” value in [4] worked out at 2 µg/mL (≈ 1.97 µM). Also, the “MIC P. aeruginosa ATCC 27853” value with P. aeruginosa ATCC 27853 stood at 2 µg/mL (≈ 1.97 µM). Further, the “MIC P. aeruginosa GN_043, PmxR” value in data set [5] was found to be 1 µg/mL (≈ 0.984 µM). Also, the “MIC P. aeruginosa GN_105, PmxR” value in data set [6] was 4 µg/mL (≈ 3.94 µM). Also, the CC50 at 24 h in “in vitro” was > 300 µM.

On to `CCCCCCC[C@@H](O)CC(=O)N[C@H](CN)C(=O)N[C@H]1CCNC(=O)[C@H](CC(C)C)NC(=O)[C@H](CCN)NC(=O)[C@H](CCN)NC(=O)[C@H](CCCC)NC(=O)[C@@H](Cc2ccccc2)NC(=O)[C@H](CCN)NC1=O` [compound 9294, 3(R)OH-nC9CO-D-Dap-cyc[L-Dab-L-Dab-D-Phe-L-NorLeu-L-Dab-L-Dab-L-Leu]] ({Decanoyl(3R-OH)}-[dDap][Dab][Dab][dF][Nle][Dab][Dab]L; lactam 2-C), for which, in the data set on A. baumannii ATCC 19606, the “MIC A. baumannii ATCC 19606” value stood at 8 µg/mL (≈ 7.76 µM). The “MIC A. baumannii GN_093 PmxR” value against A. baumannii GN_093 PmxR came to 4 µg/mL (≈ 3.88 µM). In the data set on E. coli ATCC 25922, the “MIC E. coli ATCC 25922” value stood at 4 µg/mL (≈ 3.88 µM). The “MIC K. pneumoniae ATCC 13883” value against K. pneumoniae ATCC 13883 amounted to 4 µg/mL (≈ 3.88 µM). In addition, the “MIC K. pneumoniae ATCC 700603, MDR” value in [1] turned out to be 4 µg/mL (≈ 3.88 µM). Moreover, the “MIC K. pneumoniae ATCC BAA-2146, NDM-1 pos” value in data set [2] was determined as 4 µg/mL (≈ 3.88 µM). The “MIC K. pneumoniae GN_102 PmxR” value in [3] turned out to be 2 µg/mL (≈ 1.94 µM). Moreover, in data set [4], the “MIC K. pneumoniae GN_106, PmxR” value is 2 µg/mL (≈ 1.94 µM). In addition, the “MIC P. aeruginosa ATCC 27853” value in the data set with P. aeruginosa ATCC 27853 turned out to be 2 µg/mL (≈ 1.94 µM). The “MIC P. aeruginosa GN_043, PmxR” value in data set [5] was determined as 1 µg/mL (≈ 0.971 µM). Further, the “MIC P. aeruginosa GN_105, PmxR” value in [6] turned out to be 4 µg/mL (≈ 3.88 µM). The CC50 at 24 h in “in vitro” came to 193 µM.
